# In patent publication US12115224B2, “Polypeptide conjugates for intracellular delivery of stapled peptides” (Ohio State Innovation Foundation, priority 2017, dated 2024):
# Where “and” joins values, the source holds several entries; their conditions need not be identical. Equal values may be shown once. Numbered stars: 1 amine (or outer) side, 2 acyl side, 3 side chain; on linkers, the order of the positions; unused ones are H or OH. Bridge positions count the residues as written; N and C are the ends. Square brackets hold non-standard residues; d marks the D form. Peptide text beside a SMILES is read from it. I, II: the chains in the order shown. * marks the point of attachment. X2 = NC(=O)[C@H](CCCCNC(=O)c1cc(C[*:1])cc(C[*:2])c1)NC(=O)COCCOCCN[*:3]; X1 = O=C1OC2(c3ccc(C(=O)*)cc31)c1ccc3cc(O)ccc3c1Oc1c2ccc2cc(O)ccc12; X3 = NC(=O)[C@H](CCCCNC(=O)CON=C(C[*:1])C[*:2])NC(=O)COCCOCCN[*:3]; FITC = O=C1OC2(c3ccc(O)cc3Oc3cc(O)ccc32)c2ccc(NC(=S)*)cc21; 2Nal = N[C@@H](Cc1ccc2ccccc2c1)C(=O)O; mXylylene = c1cc(C[*:1])cc(C[*:2])c1; NF = 5(6)-carboxynaphthofluorescein; CH2COCH2 = O=C(C[*:1])C[*:2]; hCys = N[C@@H](CCS)C(=O)O; K(NF) = not defined here; AEEA = NCCOCCOCC(=O)O; βAla = NCCC(=O)O
# What was measured:
# HCT116 p53+/+ = assay: MTT viability assay, HCT116 WT p53; format: cell-based, human; conditions: 0-12.5 μM, 48 h, 10% FBS
# Procedure: (§1) Peptides 4 and 5 were tested for anticancer activity against human colon carcinoma cell lines harboring WT (HCT116 p53+/+) and mutant p53 genes (HCT116 p53−/−) using the MTT viability assay. […] See Vassilev, L. T., et al., Science, 303, 844-848 (2004).
# (§2) MTT Assay. HCT116 p53 wild type and HCT116 p53^−/− cells were seeded in 96-well plate with 3×10^3 cells per well, and allowed to grow overnight. Different concentrations of peptides (0-12.5 μM) were added to the cells in McCoy's 5A medium supplemented with 10% FBS and 1% penicillin/streptomycin and incubated at 37° C. for 48 h in the presence of 5% CO2. After that, 10 μL of an MTT stock solution (5 mg/mL) was added into each well and the plate was incubated at 37° C. for 4 h. 100 μL of SDS-HCl solubilizing solution was added and the plate was incubated at 37° C. overnight. The absorbance of the formazan product formed was measured at 570 nm on a Tecan microtiter plate reader.
# HCT116 p53−/− = assay: MTT viability assay, HCT116 p53-/-; format: cell-based, human; conditions: 0-12.5 μM, 48 h, 10% FBS
# Procedure: as §1, §2
# MDM2 [1] = target: T1, MDM2 (Homo sapiens, UniProt Q00987); assay: Fluorescence anisotropy (FA)-based competition with FITC-labeled peptide 1 for binding to MDM2; conditions: unlabeled peptides 4 and 5
# Description: Expression and Purification of GST-MDM2.
# MDM2 [2] = target: T1, MDM2; assay: Direct binding of FITC-labeled peptides to MDM2 (KD); conditions: relative to the parent peptide
# HeLa cells = assay: Cytosolic entry efficiency of NF-labeled peptides by flow cytometry; conditions: NF-labeled peptide 5 μM, 2 h, 37° C., 10% FBS; relative to CPP9 (100%)
# Procedure: Flow Cytometry. HeLa cells were seeded in 12-well plates at 1.5×10^5 cells per well for 24 h. The next day, naphthofluorescein-labelled peptide (5 μM) was added to the cells in DMEM medium supplemented with 10% fetal bovine serum (FBS) and 1% penicillin/streptomycin and the cells were incubated at 37° C. for 2 h in the presence of 5% CO2. The medium containing the peptide was removed and the cells were washed with DPBS twice. […] Data were analyzed using the Flowjo software (Tree Star).
compound,measurement,setting,value
"COc1ccc(C2=N[C@@H](c3ccc(Cl)cc3)[C@@H](c3ccc(Cl)cc3)N2C(=O)N2CCNC(=O)C2)c(OC(C)C)c1 [Nutlin-3, reference compound]",effect on viability of WT p53 cells,HCT116 p53+/+,selectively killed the WT p53 cells in a dose-dependent manner
CC(=O)N[C@@H](CC(C)C)C(=O)N[C@H](C(=O)N[C@@H](Cc1ccccc1)C(=O)N[C@H]1CCSCC(=O)CSCC[C@@H](C(=O)N[C@@H](CCC(N)=O)C(=O)N[C@@H](CC(C)C)C(=O)N[C@H](C(=O)N[C@@H](CO)C(=O)NCCOCCOCC(=O)N[C@@H](CCCCNC(=S)Nc2ccc3c(c2)C(=O)OC32c3ccc(O)cc3Oc3cc(O)ccc32)C(N)=O)[C@@H](C)O)NC(=O)[C@H](Cc2c[nH]c3ccccc23)NC(=O)[C@H](Cc2ccc(O)cc2)NC(=O)[C@H](Cc2c[nH]cn2)NC1=O)[C@@H](C)O [Peptide 2] (Ac-LTF[hCys]HYW[hCys]QLTS[AEEA]K(FITC)-NH2; linker 4-8 via CH2COCH2),effect on viability of WT p53 cells,HCT116 p53+/+,no significant effect
same,effect on viability of p53 mutant cells,HCT116 p53−/−,no significant effect
CC(=O)N[C@@H](CC(C)C)C(=O)N[C@H](C(=O)N[C@@H](Cc1ccccc1)C(=O)N[C@H]1CCSCC(=NOCC(=O)NCCCC[C@H](NC(=O)COCCOCCNC(=O)CC[C@@H]2NC(=O)[C@@H](CCCNC(=N)N)NC(=O)[C@H](CCCNC(=N)N)NC(=O)[C@@H](CCCNC(=N)N)NC(=O)[C@H](CCCNC(=N)N)NC(=O)[C@H](Cc3ccc4ccccc4c3)NC(=O)[C@@H](Cc3ccccc3)NC2=O)C(N)=O)CSCC[C@@H](C(=O)N[C@@H](CCC(N)=O)C(=O)N[C@@H](CC(C)C)C(=O)N[C@H](C(=O)N[C@@H](CO)C(=O)NCCOCCOCC(=O)N[C@@H](CCCCN)C(N)=O)[C@@H](C)O)NC(=O)[C@H](Cc2c[nH]c3ccccc23)NC(=O)[C@H](Cc2ccc(O)cc2)NC(=O)[C@H](Cc2c[nH]cn2)NC1=O)[C@@H](C)O [Peptide 4] (I: Ac-LTF[hCys]HYW[hCys]QLTS[AEEA]K-NH2 / II: cyclo([2Nal]R[dR]R[dR]E[dF]); linker I:4-I:8-II:6 via X3),IC50,MDM2 [1],220 nM
CC(=O)N[C@@H](CC(C)C)C(=O)N[C@H](C(=O)N[C@@H](Cc1ccccc1)C(=O)N[C@H]1CCSCC(=NOCC(=O)NCCCC[C@H](NC(=O)COCCOCCNC(=O)CC[C@@H]2NC(=O)[C@@H](CCCNC(=N)N)NC(=O)[C@H](CCCNC(=N)N)NC(=O)[C@@H](CCCNC(=N)N)NC(=O)[C@H](CCCNC(=N)N)NC(=O)[C@H](Cc3ccc4ccccc4c3)NC(=O)[C@@H](Cc3ccccc3)NC2=O)C(N)=O)CSCC[C@@H](C(=O)N[C@@H](CCC(N)=O)C(=O)N[C@@H](CC(C)C)C(=O)N[C@H](C(=O)N[C@@H](CO)C(=O)NCCOCCOCC(=O)N[C@@H](CCCCN)C(N)=O)[C@@H](C)O)NC(=O)[C@H](Cc2c[nH]c3ccccc23)NC(=O)[C@H](Cc2ccc(O)cc2)NC(=O)[C@H](Cc2c[nH]cn2)NC1=O)[C@@H](C)O [Peptide 5] (I: Ac-LTF[hCys]HYW[hCys]QLTS[AEEA]K-NH2 / II: cyclo([2Nal]R[dR]R[dR]E[dF]); linker I:4-I:8-II:6 via X3),IC50,MDM2 [1],201 nM
CC(=O)N[C@@H](CC(C)C)C(=O)N[C@H](C(=O)N[C@@H](Cc1ccccc1)C(=O)N[C@H]1CSCc2cccc(c2)CSC[C@@H](C(=O)N[C@@H](CCC(N)=O)C(=O)N[C@@H](CC(C)C)C(=O)N[C@H](C(=O)N[C@@H](CO)C(=O)NCCOCCOCC(=O)N[C@@H](CCCCNC(=O)c2ccc3c(c2)C(=O)OC32c3ccc4cc(O)ccc4c3Oc3c2ccc2cc(O)ccc32)C(N)=O)[C@@H](C)O)NC(=O)[C@H](Cc2c[nH]c3ccccc23)NC(=O)[C@H](Cc2ccc(O)cc2)NC(=O)[C@H](Cc2c[nH]cn2)NC1=O)[C@@H](C)O [Peptide 6] (Ac-LTFCHYWCQLTS[AEEA]K(X1)-NH2; linker 4-8 via mXylylene),fold decrease of MDM2 binding affinity,MDM2 [2],~2.5 fold
CC(=O)N[C@@H](CC(C)C)C(=O)N[C@H](C(=O)N[C@@H](Cc1ccccc1)C(=O)N[C@H]1CSCc2cc(cc(C(=O)NCCCC[C@H](NC(=O)COCCOCCNC(=O)CC[C@@H]3NC(=O)[C@@H](CCCNC(=N)N)NC(=O)[C@H](CCCNC(=N)N)NC(=O)[C@@H](CCCNC(=N)N)NC(=O)[C@H](CCCNC(=N)N)NC(=O)[C@H](Cc4ccc5ccccc5c4)NC(=O)[C@@H](Cc4ccccc4)NC3=O)C(N)=O)c2)CSC[C@@H](C(=O)N[C@@H](CCC(N)=O)C(=O)N[C@@H](CC(C)C)C(=O)N[C@H](C(=O)N[C@@H](CO)C(=O)NCCOCCOCC(=O)N[C@@H](CCCCNC(=O)c2ccc3c(c2)C(=O)OC32c3ccc4cc(O)ccc4c3Oc3c2ccc2cc(O)ccc32)C(N)=O)[C@@H](C)O)NC(=O)[C@H](Cc2c[nH]c3ccccc23)NC(=O)[C@H](Cc2ccc(O)cc2)NC(=O)[C@H](Cc2c[nH]cn2)NC1=O)[C@@H](C)O [Peptide 7] (I: Ac-LTFCHYWCQLTS[AEEA]K(X1)-NH2 / II: cyclo([2Nal]R[dR]R[dR]E[dF]); linker I:4-I:8-II:6 via X2),fold decrease of MDM2 binding affinity,MDM2 [2],~2 fold
"CC(=O)N[C@@H](CC(C)C)C(=O)N[C@H](C(=O)N[C@@H](Cc1ccccc1)C(=O)N[C@H]1CCSCc2cccc(c2)CSCC[C@@H](C(=O)N[C@@H](CCC(N)=O)C(=O)N[C@@H](CC(C)C)C(=O)N[C@H](C(=O)N[C@@H](CO)C(=O)NCCOCCOCC(=O)N[C@@H](CCCCNC(=O)c2ccc3c(c2)C(=O)OC32c3ccc4cc(O)ccc4c3Oc3c2ccc2cc(O)ccc32)C(N)=O)[C@@H](C)O)NC(=O)[C@H](Cc2c[nH]c3ccccc23)NC(=O)[C@H](Cc2ccc(O)cc2)NC(=O)[C@H](Cc2c[nH]cn2)NC1=O)[C@@H](C)O [Peptide 8, Ac-LTFhCHYWhCQLTS-miniPEG-K(NF)-NH2] (Ac-LTF[hCys]HYW[hCys]QLTS[AEEA]K(X1)-NH2; linker 4-8 via mXylylene)",fold improvement of MDM2 binding affinity,MDM2 [2],5 fold
"CC(=O)N[C@@H](CC(C)C)C(=O)N[C@H](C(=O)N[C@@H](Cc1ccccc1)C(=O)N[C@H]1CCSCc2cc(cc(C(=O)NCCCC[C@H](NC(=O)COCCOCCNC(=O)CC[C@@H]3NC(=O)[C@@H](CCCNC(=N)N)NC(=O)[C@H](CCCNC(=N)N)NC(=O)[C@@H](CCCNC(=N)N)NC(=O)[C@H](CCCNC(=N)N)NC(=O)[C@H](Cc4ccc5ccccc5c4)NC(=O)[C@@H](Cc4ccccc4)NC3=O)C(N)=O)c2)CSCC[C@@H](C(=O)N[C@@H](CCC(N)=O)C(=O)N[C@@H](CC(C)C)C(=O)N[C@H](C(=O)N[C@@H](CO)C(=O)NCCOCCOCC(=O)N[C@@H](CCCCNC(=O)c2ccc3c(c2)C(=O)OC32c3ccc4cc(O)ccc4c3Oc3c2ccc2cc(O)ccc32)C(N)=O)[C@@H](C)O)NC(=O)[C@H](Cc2c[nH]c3ccccc23)NC(=O)[C@H](Cc2ccc(O)cc2)NC(=O)[C@H](Cc2c[nH]cn2)NC1=O)[C@@H](C)O [Peptide 9, Ac-LTFhCHYWhCQLTS-miniPEG-K(NF)-NH2] (I: Ac-LTF[hCys]HYW[hCys]QLTS[AEEA]K(X1)-NH2 / II: cyclo(R[dR]E[dF][2Nal]R[dR]); linker I:4-I:8-II:3 via X2)",fold decrease of MDM2 binding affinity,MDM2 [2],~8 fold
CC(=O)N[C@@H](CCC(=O)O)C(=O)N[C@H](C(=O)N[C@@H](Cc1ccccc1)C(=O)N[C@H]1CSCc2cc(cc(C(=O)NCCCC[C@H](NC(=O)COCCOCCNC(=O)CC[C@@H]3NC(=O)[C@@H](CCCNC(=N)N)NC(=O)[C@H](CCCNC(=N)N)NC(=O)[C@@H](CCCNC(=N)N)NC(=O)[C@H](CCCNC(=N)N)NC(=O)[C@H](Cc4ccc5ccccc5c4)NC(=O)[C@@H](Cc4ccccc4)NC3=O)C(N)=O)c2)CSC[C@@H](C(=O)N[C@@H](CCC(N)=O)C(=O)N[C@@H](CC(C)C)C(=O)N[C@H](C(=O)N[C@@H](CO)C(=O)NCCOCCOCC(=O)N[C@@H](CCCCNC(=O)c2ccc3c(c2)C(=O)OC32c3ccc4cc(O)ccc4c3Oc3c2ccc2cc(O)ccc32)C(N)=O)[C@@H](C)O)NC(=O)[C@H](Cc2c[nH]c3ccccc23)NC(=O)[C@H](Cc2ccc(O)cc2)NC(=O)[C@H](Cc2c[nH]cn2)NC1=O)[C@@H](C)O [Peptide 11] (I: Ac-ETFCHYWCQLTS[AEEA]K(X1)-NH2 / II: cyclo([2Nal]R[dR]R[dR]E[dF]); linker I:4-I:8-II:6 via X2),fold decrease of MDM2 binding affinity,MDM2 [2],6 fold
Ac-ETFCHYWCQLTS-miniPEG-K(NF)-NH2 (Ac-ETFCHYWCQLTS-{miniPEG-K(NF)-NH2}; linker 4-8 via xylene; reading uncertain; also: printed as Ac-ETFCHYWCQLTS-miniPEG-K(NF)-NH2) [Peptide 10],"Cellular Uptake (MFI^NF, %)",HeLa cells,2.8% and 2.8 ± 0.1%
NF-βA-ENPECILDCHVQRVM-NH2 [16] ({NF-βAla}-ENPECILDCHVQRVM-NH2; bridge 5-9; not fully specified (bridges)) [Peptide 16],"Cellular Uptake (MFI^NF, %)",HeLa cells,2.5% and 2.5 ± 0.5%
NF-βA-NPECILDCHVQRVM-NH2 [18] ({NF-βAla}-NPECILDCHVQRVM-NH2; bridge 4-8; not fully specified (bridges)) [Peptide 18],"Cellular Uptake (MFI^NF, %)",HeLa cells,8.9% and 8.9 ± 2.9%
NF-βA-RKFCRLFC-NH2 [14] ({NF-βAla}-RKFCRLFC-NH2; bridge 4-8; not fully specified (bridges)) [Peptide 14],"Cellular Uptake (MFI^NF, %)",HeLa cells,47% and 47 ± 9%
